# Results: patent US5620676A, “Biologically active ATP analogs” (priority 1995, dated 1997)
# Entries after “also recorded” stand apart in the source; their conditions may differ. Read-outs that look alike come from different tables or passages of the source.
# Assays:
# [1] = target: T1, P2X receptor (saphenous artery) (Oryctolagus cuniculus, UniProt G1U3D6); experiment: Contraction of rabbit saphenous artery; details: rabbit saphenous artery; 10 μM; read-out: response at 10 μM relative to the contraction produced by 1 μM α,MeATP, saph. artery
# T1 construct: and rabbit saphenous artery; from tissue; host or cells: rabbit saphenous artery
# T1 sequence (G1U3D6 1-399): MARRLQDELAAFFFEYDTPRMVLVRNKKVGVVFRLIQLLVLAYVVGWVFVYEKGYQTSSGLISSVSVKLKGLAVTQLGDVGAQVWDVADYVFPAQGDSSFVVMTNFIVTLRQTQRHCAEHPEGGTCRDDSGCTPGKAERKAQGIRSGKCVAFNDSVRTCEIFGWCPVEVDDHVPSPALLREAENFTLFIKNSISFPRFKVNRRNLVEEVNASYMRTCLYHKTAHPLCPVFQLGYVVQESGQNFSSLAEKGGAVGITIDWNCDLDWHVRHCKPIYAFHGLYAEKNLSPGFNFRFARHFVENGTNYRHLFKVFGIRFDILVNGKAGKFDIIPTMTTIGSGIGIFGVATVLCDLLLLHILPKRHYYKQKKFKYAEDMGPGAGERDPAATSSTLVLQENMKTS
# Excerpt: (§1) Muscular relaxation/contraction: Relaxant responses mediated via P2Y receptors were examined in guinea pig taenia coli, rabbit aorta, and rabbit mesenteric artery, as described by Hoyle et al. (Br. J. Pharmacol., 107, 367-374 (1992a)), Burnstock et al., (Br. J. Pharmacol., 90, 383-391 (1987a)), and Rubino et al., (Eur. J. Pharmacol., 212, 237-240 (1992)). Contractile responses mediated via P2X receptors were examined in the guinea pig urinary bladder and vas deferens, and rabbit saphenous artery, also using standard methods (see Hoyle et al., supra., 1992; Hoyle et al., Br. J. Pharmacol., 99, 617-621 (1990); and Burnstock et al., Br. J. Pharmacol., 90, 111-120 (1987b)).
# ^c For the saphenous artery, the percentages in brackets are response
# at 10 μM relative to the contraction produced by 1 μM α,MeATP
# ATP in this assay is very weak (EC50 =
# 1.78 mM). The highest concentrations of the analogues tested were 3-30
# [2] = target: T2, P2Y receptor (turkey erythrocyte membranes) (Meleagris gallopavo, UniProt P49652); experiment: Stimulation of phospholipase C (inositol phosphate formation) in turkey erythrocyte membranes; type: biochemical
# T2 construct: from tissue; host or cells: washed turkey erythrocytes, ghosts prepared by hypotonic lysis
# Protocol: Phospholipase C activity: Stimulation of inositol phosphate formation by compounds of the present invention was measured in turkey erythrocyte membranes as described by Harden et al., supra and Boyer et al., supra. The K0.5 values were averaged from 3-8 independently determined dose-response curves for each compound. Briefly, one ml of washed turkey erythrocytes was incubated in inositol-free medium (DMEM; Gibco) with 0.5-1 mCi of 2-[^3 H]myoinositol (20 Ci/mmol; American Radiolabeled Chemicals Inc., St. Louis, Mo.)for 18-24 h in a humidified atmosphere of 95% air 5% CO2 at 37° C. Erythrocyte ghosts were prepared by rapid lysis in hypotonic buffer (5 mM sodium phosphate, pH 7.4, 5 mM MgCl2, 1 mM EGTA) as described by Boyer et al., supra. Phospholipase C activity was measured in 25 μl of [^3 H]inositol-labeled ghosts (≈175 μg of protein, 200-500,000 cpm/assay) in a medium containing 424 μM CaC12, 0.91 mM MgSO4, 2 mM EGTA, 115 mM KCl, 5 mM KH2 PO4, and 10 mM Hepes, pH 7.0. Assay (100 μl or 200 μl final volume) contained 1 μM GTPγS and the indicated concentrations of nucleotide analogs. Ghosts were incubated at 30° C. for 5 min, and total [^3 H]inositol phosphates were quantitated after purification by anion exchange chromatography according to Harden et al. (supra) and Boyer et al. (supra).
# (§2) Phospholipase C activity and muscle relaxation/contraction effects were assessed using the methods recited in Example 3. In FIGS. 10-12, which present the result of assays of phospholipase C activity in turkey erythrocyte membranes, the x-axis is marked in units of the log of the molar concentration of the putative P2Y receptor agonist tested and the y-axis is marked in units of the percentage of maximum production of [^3 H]-inositol phosphate generated. In FIG. 13, the x-axis is marked in units of the negative log of the molar concentration of applied putative P2Y receptor agonists and the y-axis is marked in units of the percentage relaxation of the 50 nM carbachol-induced contraction of guinea pig taenia coli. In FIG. 14, the x-axis is also marked in units of the negative log of the molar concentration of applied putative P2Y receptor agonists and the y-axis is marked in units of the percentage relaxation of the 1 μM noradrenalin-induced contraction of rabbit aorta endothelium. In FIGS. 15-16, the x-axis is marked in units of the negative log of the molar concentration of applied putative p^2X receptor agonists and the y-axis is marked in units of the percentage contraction relative to a standard dose of KCl (i.e., 60 mM), as assessed in guinea pig isolated urinary bladder detrussor muscle (FIG. 15) and guinea pig isolated vas deferens (FIG. 16).
# [3] = target: T3, P2Y receptor (taenia coli) (Cavia porcellus, UniProt P59902); experiment: Relaxation of carbachol-contracted guinea pig taenia coli
# T3 construct: Relaxant responses mediated via P2Y receptors were examined in guinea pig taenia coli; from tissue; host or cells: guinea pig taenia coli (carbachol-contracted)
# Excerpt: as §1
# Muscular relaxation assays were performed as recited in Example 3. […] All curves are the mean of two determinations except for 5'-ATP (n=38), 2-hexylthio-ATP (n=4), 2-(5-hexenyl)thio-ATP (n=3), and 2-(2-4-nitrophenylethyl)thio-AMP (n=5). […] The pD2 value for 2-methylthio-ATP is 8.0±0.15, as reported by Hoyle et al., in Receptor Data for Biological Experiments, (H. N. Doods and J. C. A. Van Meel, eds., 1992b) at pp. 54-61.
# as §2
# [4] = target: P2Y receptor (mesenteric artery); experiment: Relaxation of rabbit mesenteric artery; details: log molar units
# [5] = test system: P2Y receptor (aorta endothelium); experiment: Relaxation of noradrenalin-contracted rabbit aorta; details: rabbit aorta; log molar units
# [6] = target: T4, P2X receptor (urinary bladder) (Cavia porcellus, UniProt A0A286XVA9); experiment: Contraction of guinea pig isolated urinary bladder detrussor muscle; details: guinea pig urinary bladder
# T4 construct: guinea pig isolated urinary bladder detrussor muscle; from tissue; host or cells: guinea pig isolated urinary bladder detrusor muscle
# [7] = target: T5, P2X receptor (vas deferens) (Cavia porcellus, UniProt A0A286XVA9); experiment: Contraction of guinea pig isolated vas deferens
# T5 sequence (A0A286XVA9 1-399): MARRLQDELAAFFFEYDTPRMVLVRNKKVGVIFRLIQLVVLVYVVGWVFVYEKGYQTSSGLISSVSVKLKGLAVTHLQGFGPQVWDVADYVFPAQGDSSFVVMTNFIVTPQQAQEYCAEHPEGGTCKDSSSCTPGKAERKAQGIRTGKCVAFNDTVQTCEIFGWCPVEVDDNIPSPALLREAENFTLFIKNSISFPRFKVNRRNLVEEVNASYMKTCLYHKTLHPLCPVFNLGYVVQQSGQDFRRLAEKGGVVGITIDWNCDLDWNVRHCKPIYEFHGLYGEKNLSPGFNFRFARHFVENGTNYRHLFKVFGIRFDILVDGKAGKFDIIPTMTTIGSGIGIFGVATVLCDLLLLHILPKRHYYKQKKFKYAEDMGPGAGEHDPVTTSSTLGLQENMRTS
# [8] = turkey erythrocyte membranes, mean ± S.E.M. for at least 2 determinations, read-out: phosphatidyl inositol metabolism (K0.5, nM) erythrocyte
# [9] = guinea pig taenia coli, log molar units, read-out: relaxation pD2, taenia coli (converted)
# [10] = turkey erythrocyte membranes, read-out: K0.5
# T3 sequence (P59902 whole entry): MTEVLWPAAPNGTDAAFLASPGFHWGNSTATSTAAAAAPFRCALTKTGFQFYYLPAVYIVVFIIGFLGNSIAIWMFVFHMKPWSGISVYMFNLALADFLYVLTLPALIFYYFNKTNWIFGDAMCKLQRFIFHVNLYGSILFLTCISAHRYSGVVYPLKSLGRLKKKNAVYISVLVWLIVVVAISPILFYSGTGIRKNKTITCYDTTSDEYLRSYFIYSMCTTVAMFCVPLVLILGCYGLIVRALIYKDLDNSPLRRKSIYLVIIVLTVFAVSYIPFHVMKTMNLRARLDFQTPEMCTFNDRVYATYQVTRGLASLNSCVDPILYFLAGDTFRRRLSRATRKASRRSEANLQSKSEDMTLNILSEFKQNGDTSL
# T2 sequence (P49652 whole entry): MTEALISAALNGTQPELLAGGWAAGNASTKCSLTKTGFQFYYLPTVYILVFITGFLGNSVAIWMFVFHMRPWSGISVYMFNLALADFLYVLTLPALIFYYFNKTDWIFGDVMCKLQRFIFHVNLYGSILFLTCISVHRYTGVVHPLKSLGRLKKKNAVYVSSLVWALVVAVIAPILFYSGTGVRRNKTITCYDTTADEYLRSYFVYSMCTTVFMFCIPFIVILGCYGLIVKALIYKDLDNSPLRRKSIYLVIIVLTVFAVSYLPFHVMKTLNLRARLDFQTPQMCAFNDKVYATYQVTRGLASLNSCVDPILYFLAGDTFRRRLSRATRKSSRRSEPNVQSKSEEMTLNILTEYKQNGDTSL
"activity/potency in words, vas deferens [7]",Structure (SMILES),"EC50 [2, 8] [nM]","activity/potency in words, taenia coli ([3]; guinea pig taenia coli)","relaxation pD2, mes. artery [4]","relaxation pD2, aorta [5]","activity/potency in words, turkey erythrocyte ([2]; turkey erythrocyte membranes)",other results
,"C=CCCCCSc1nc(NC)c2ncn([C@@H]3O[C@H](COP(=O)(O)O)[C@@H](O)[C@H]3O)c2n1 [N^6 -Me-2-(5-hexenyl)-thio-AMP, N^6 -Me-2-(5-hexenylthio)adenosine monophosphate]",> 100000,,,,,activation at 10 µM [1]: 6.7%
,"Nc1ncnc2c1ncn2[C@@H]1O[C@H](COP(=O)(O)OP(=O)(O)OP(O)(O)=S)[C@@H](O)[C@H]1O [ATP-γ-S, reference compound]",1260 ± 380,not in the taenia coli,5.8,5.7,enhanced potency relative to the parent compound,
,"Nc1ncnc2c1ncn2[C@@H]1O[C@H](COP(=O)(O)OP(O)(O)=S)[C@@H](O)[C@H]1O [ADP-β-S, reference compound]",96 ± 27,not in the taenia coli; also recorded: no greater affinity for the P2Y receptor in the guinea-pig taenia coli than ATP or ADP,5.8,5.8,enhanced potency relative to the parent compound; also recorded: a very high affinity for the turkey erythrocyte P2Y receptor,"times more potent than ADP, turkey erythrocyte ([2]; relative to ADP): ~400 times; times more potent than ATP, turkey erythrocyte ([2]; relative to ATP): approximately 140 times"
without effect in the vas deferens,"O=c1ccn([C@@H]2O[C@H](COP(=O)(O)OP(=O)(O)OP(=O)(O)O)[C@@H](O)[C@H]2O)c(=O)[nH]1 [UTP, reference compound]",143000,,6.7,4.8,,"activity/potency in words, bladder [6]: as potent as or more potent than ATP in the bladder; EC50 [3, 9]: 316 µM"
,"Nc1nc(SCCc2ccc([N+](=O)[O-])cc2)nc2c1ncn2[C@@H]1O[C@H](COP(=O)(O)O)[C@@H](O)[C@H]1O [2-(2-p-Nitrophenylethyl)-thio-AMP, 2-[2-(p-nitrophen)ethylthio]adenosine 5'-monophosphate]",3000 ± 1200,slightly less potent than ATP,5.0,6.1,,"relaxation pD2, taenia coli ([3]; guinea pig taenia coli, log molar units): 6.5"
≈ATP,"Nc1ncnc2c1ncn2[C@H]1CC[C@@H](COP(=O)(O)OP(=O)(O)OP(=O)(O)O)O1 [2',3'-Dideoxy-ATP, 2',3'-dideoxy-ATP, reference compound]",70800,as potent as ATP at taenia coli P2Y receptors,,,weakly active at turkey erythrocyte P2Y receptors,"activity/potency in words, bladder [6]: >ATP; EC50 [3, 9]: 10 µM"
,"Nc1nc(SC2CCCCC2)nc2c1ncn2[C@@H]1O[C@H](COP(=O)(O)OP(=O)(O)OP(=O)(O)O)[C@@H](O)[C@H]1O [2-Cyclohexylthio-ATP, 2-cyclohexylthio-ATP]",24 ± 4,,5.9,6.3,at least two orders of magnitude more potent,"EC50 [3]: 0.0158 µM; EC50 [2, 10]: 5 to 30 nM"
,"Nc1nc(SCCc2ccccc2)nc2c1ncn2[C@@H]1O[C@H](COP(=O)(O)OP(=O)(O)OP(=O)(O)O)[C@@H](O)[C@H]1O [2-Phenylethylthio-ATP, 2-phenylethylthio-ATP]",30 ± 17,,6.2,6.5,at least two orders of magnitude more potent,"EC50 [3]: 0.0794 µM; EC50 [2, 10]: 5 to 30 nM"
without effect,"Nc1ncnc2c1ncn2[C@@H]1O[C@H](COP(=O)(O)O)[C@@H](O)[C@H]1O [AMP, adenosine 5'-monophosphate, reference compound]",,much less potent,5.0,4.8,inactive,"activity/potency in words, bladder [6]: inactive; activation at 100 µM ([2]; 5 min, at 10^-4 M, read-out: % stimulation at concentration indicated): 4 ± 2%"
,"Nc1ncnc2c1ncn2[C@@H]1O[C@H](CO)[C@@H](O)[C@H]1O [Adenosine, reference compound]",,,6.0,5.7,,"EC50 [3]: 126 µM; EC50 ([2]; at 10^-5 M, read-out: phosphatidyl inositol metabolism (K0.5) erythrocyte, class symbol): > 10000 nM"

Structure (SMILES),"activity/potency in words, vas deferens [7]","EC50 [2, 8] [nM]","activity/potency in words, taenia coli ([3]; guinea pig taenia coli)","relaxation pD2, mes. artery [4]","relaxation pD2, aorta [5]","activity/potency in words, turkey erythrocyte ([2]; turkey erythrocyte membranes)",other results
"Nc1ncnc2c1ncn2[C@@H]1O[C@H](COP(=O)(O)OP(=O)(O)NP(=O)(O)O)[C@@H](O)[C@H]1O [AppNHp, reference compound]",an effect similar to methylene replacement,4450 ± 1150,an effect similar to methylene replacement,6.6,5.5,equipotent with ATP in the erythrocytes,
